The values that follow come from ChEMBL document CHEMBL3259781 (J Med Chem, 2014).

Molecules are shown by their SMILES. Some results are limits rather than exact numbers.

One series concerns Mus musculus. Briefly: Anticataleptic activity in mouse assessed as inhibition of CGS21680-induced catalepsy at 10 mg/kg, po. The class given is functional.
The species entered for another series is Homo sapiens. Briefly: Selectivity ratio of Ki for human recombinant adenosine A1 receptor to Ki for human recombinant adenosine receptor A2a.
The target in series [1] is T1, Adenosine receptor A1 (Homo sapiens, UniProt P30542).
T1 sequence (P30542 whole entry): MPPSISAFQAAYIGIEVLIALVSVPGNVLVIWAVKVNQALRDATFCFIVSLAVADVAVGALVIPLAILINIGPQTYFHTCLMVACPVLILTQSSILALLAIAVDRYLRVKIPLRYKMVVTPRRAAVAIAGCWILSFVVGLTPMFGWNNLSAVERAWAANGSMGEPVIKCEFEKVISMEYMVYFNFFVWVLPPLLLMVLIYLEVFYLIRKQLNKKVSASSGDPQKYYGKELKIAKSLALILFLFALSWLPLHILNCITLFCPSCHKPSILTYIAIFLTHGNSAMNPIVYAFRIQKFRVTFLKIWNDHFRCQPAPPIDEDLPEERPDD

For series [2], the target named is T2, Adenosine receptor A3 (Homo sapiens, UniProt P0DMS8).
T2 sequence (P0DMS8 whole entry): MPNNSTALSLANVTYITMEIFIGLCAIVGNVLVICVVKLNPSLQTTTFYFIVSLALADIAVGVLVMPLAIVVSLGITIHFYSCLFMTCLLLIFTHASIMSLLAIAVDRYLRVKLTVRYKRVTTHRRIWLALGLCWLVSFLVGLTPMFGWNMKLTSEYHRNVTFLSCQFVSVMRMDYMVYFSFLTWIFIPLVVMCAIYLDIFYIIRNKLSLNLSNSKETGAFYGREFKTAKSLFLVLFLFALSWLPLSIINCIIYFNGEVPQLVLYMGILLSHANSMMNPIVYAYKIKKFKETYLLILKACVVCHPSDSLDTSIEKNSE
Put plainly: Binding affinity to human recombinant adenosine A3 receptor.

Series [3] addresses T3, Adenosine receptor A2b (Homo sapiens, UniProt P29275).
T3 sequence (P29275 whole entry): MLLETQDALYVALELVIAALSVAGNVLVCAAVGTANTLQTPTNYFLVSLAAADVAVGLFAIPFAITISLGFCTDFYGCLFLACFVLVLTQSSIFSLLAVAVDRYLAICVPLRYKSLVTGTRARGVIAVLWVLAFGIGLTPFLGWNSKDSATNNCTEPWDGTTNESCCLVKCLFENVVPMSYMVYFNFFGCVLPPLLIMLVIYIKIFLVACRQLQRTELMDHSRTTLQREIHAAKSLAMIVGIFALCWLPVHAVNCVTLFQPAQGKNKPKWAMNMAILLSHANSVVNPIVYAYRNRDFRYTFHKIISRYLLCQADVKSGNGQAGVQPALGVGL

Series [4] concerns the target T1, Adenosine receptor A1. The source holds these as a separate data set.
Series [5] concerns the target T4, Adenosine receptor A2a (Homo sapiens, UniProt P29274).
For series [6], the target named is T3, Adenosine receptor A2b. This is another data set of the same source.
Series [7] has as its target T2, Adenosine receptor A3.
Series [8] has as its system Rattus norvegicus. Put plainly: Anticataleptic activity in rat assessed as inhibition at 1 mg/kg, po after 1 hr. The class given is functional. The settings on record: Rattus norvegicus, po, 1 h.
Series [9] has as its system Rattus norvegicus. Briefly: Anticataleptic activity in rat assessed as inhibition at 1 mg/kg, po after 4 hrs. The format is functional. The settings on record: Rattus norvegicus, po, 4 h.
Series [10] is filed under the species Rattus norvegicus. Briefly: Selectivity ratio of Ki for rat striatal adenosine A1 receptor to Ki for rat recombinant adenosine receptor A2a.
The target in series [11] is Adenosine receptor A2a (Rattus norvegicus, UniProt P30543).
The target in series [12] is T4, Adenosine receptor A2a. The source holds these as a separate data set.
Series [13] concerns Rattus norvegicus. Put plainly: Anticataleptic activity in rat assessed as inhibition at 3 mg/kg, po after 1 hr. The format is functional.
In series [14] the test system is Rattus norvegicus. Briefly: Anticataleptic activity in rat assessed as inhibition at 3 mg/kg, po after 4 hrs. The format is functional.
Series [15] can be described thus: AUC in rat at 3 mg/kg, po. The class given is ADME, organism-based. Also noted: dose 3 mg/kg, route oral. The note with it: plasma.
Series [16] has as its system Rattus norvegicus. Put plainly: Anticataleptic activity in po dosed rat assessed as inhibition of haloperidol-induced catalepsy. The class given is functional.
For series [17], the species on record is Rattus norvegicus. Put plainly: Anticataleptic activity in rat assessed as minimum efficacious dose. The format is functional. The settings on record: read-out: MED.

T4 sequence (P29274 whole entry): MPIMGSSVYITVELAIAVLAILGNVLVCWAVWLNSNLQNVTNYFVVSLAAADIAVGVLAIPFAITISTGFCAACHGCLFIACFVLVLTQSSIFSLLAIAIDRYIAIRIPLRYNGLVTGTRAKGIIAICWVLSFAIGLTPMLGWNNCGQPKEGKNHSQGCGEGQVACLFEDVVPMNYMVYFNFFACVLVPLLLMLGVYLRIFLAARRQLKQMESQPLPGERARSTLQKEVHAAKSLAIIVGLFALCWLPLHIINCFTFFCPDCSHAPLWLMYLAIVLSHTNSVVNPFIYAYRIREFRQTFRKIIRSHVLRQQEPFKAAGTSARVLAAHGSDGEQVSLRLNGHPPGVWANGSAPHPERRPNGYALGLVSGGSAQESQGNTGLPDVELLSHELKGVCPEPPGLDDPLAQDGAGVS
Chain of Adenosine receptor A2a (Rattus norvegicus, UniProt P30543) (P30543 whole entry): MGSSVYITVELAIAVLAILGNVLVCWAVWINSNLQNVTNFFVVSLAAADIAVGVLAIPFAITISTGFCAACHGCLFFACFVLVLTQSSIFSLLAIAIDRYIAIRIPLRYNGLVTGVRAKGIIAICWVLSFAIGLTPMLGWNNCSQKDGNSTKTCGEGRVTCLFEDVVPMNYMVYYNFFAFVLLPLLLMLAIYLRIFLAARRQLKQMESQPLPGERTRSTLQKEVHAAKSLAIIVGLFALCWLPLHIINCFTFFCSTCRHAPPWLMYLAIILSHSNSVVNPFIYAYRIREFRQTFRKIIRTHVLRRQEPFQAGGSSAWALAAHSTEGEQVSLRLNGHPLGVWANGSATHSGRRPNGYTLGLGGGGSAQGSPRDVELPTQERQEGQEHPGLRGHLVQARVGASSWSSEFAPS

The inhibition in vivo is the drop in the measured response relative to a control, in per cent. With `COc1ccc(N2CCOCC2)c2cc(C(=O)Nc3ccncc3)oc12`, the inhibition in vivo at 10 mg/kg with Mus musculus amounted to 76%.
Usually Ki stands for a dissociation constant, usually derived from enzyme kinetics or from competition with a known ligand. Consider `Nc1nc2c(cnn2CCN2CCOCC2)c2nn(Cc3cccc(Cl)c3)c(=O)n12`, for which the Ratio Ki in the series filed under Homo sapiens stood at 99. On Adenosine receptor A1 [1], this molecule yielded a Ki of 1400 nM.
Usually EC50 stands for the concentration needed to bring the measured effect to its halfway point. With `CNC(=O)c1cnn(-c2nc(N)c3ncn([C@@H]4O[C@H](CO)[C@@H](O)[C@H]4O)c3n2)c1` [REGADENOSON ANHYDROUS], the Ki stood at 10000 nM on Adenosine receptor A3 [2] and 3770 nM at Adenosine receptor A1 [4]. On Adenosine receptor A2b [3], this molecule came in with an EC50 of 10000 nM.
As for `CCNC(=O)[C@H]1O[C@@H](n2cnc3c(N)nc(C#CC[C@H]4CC[C@H](C(=O)OC)CC4)nc32)[C@H](O)[C@@H]1O` [APADENOSON], the inhibition constant Ki on Adenosine receptor A3 [2] turned out to be 45 nM; at Adenosine receptor A1 [4], 77 nM.
Consider `Nc1nc(Cl)nc2c1ncn2[C@@H]1O[C@H](CO)[C@@H](O)[C@H]1O`, for which the values for the Ki at Adenosine receptor A3 [2], on Adenosine receptor A2a [5] and at Adenosine receptor A1 [4] were 19 nM, 180 nM and 1.39 nM, respectively.
In the case of `CC1CN(c2nnc(N)nc2-c2ccccc2)CC(C)O1` (stereo not drawn), the Ratio Ki in the series listed under Homo sapiens is 617. Further, the Ki on Adenosine receptor A1 [1] stood at 10000 nM.
For `Nc1nc(-c2ccco2)c2ncn(C(=O)NCc3ccccc3)c2n1`, the values for the Ki on Adenosine receptor A2b [6] and at Adenosine receptor A3 [7] were 112 nM and 1470 nM, respectively.
With `CC1(C)CCCN(c2nnc(N)nc2-c2ccccc2)C1`, the Ratio Ki in the series listed under Homo sapiens came out at 245. For the same molecule, the affinity on Adenosine receptor A1 [1], expressed as Ki, was 10000 nM.
Molecule `Nc1nc(NCCc2ccc(O)cc2)nc2nc(-c3ccco3)nn12` [ZM-241385] came in with a Ki at Adenosine receptor A3 [7] above 10000 nM.
For the molecule `COCCOc1ccc(N2CCN(CCn3cnc4c3nc(N)n3nc(-c5ccco5)nc43)CC2)cc1`, in the series filed under Homo sapiens, the Ratio Ki is 669. The figures for the inhibition in vivo at 1 mg/kg with Rattus norvegicus [8] and in the series on Rattus norvegicus [9] were 55% and 50%, respectively. This molecule had a Ki on Adenosine receptor A1 [1] of 602 nM.
As for `CC(O)(C#Cc1cn2nc(-c3ccco3)nc2c(N)n1)c1ccccc1` (stereo not drawn), in the series listed under Rattus norvegicus [10], the Ratio Ki is 3.4.
As for `CC(=O)CCc1nc(N)c2nc(-n3nccn3)n(C)c2n1`, the Ratio Ki in the series filed under Homo sapiens is 16. Also, the Ki on Adenosine receptor A1 [1] amounted to 192 nM.
With `Nc1nc2ccc(Cl)cc2c2nc(-c3ccco3)nn12` [CGS-15943], on Adenosine receptor A2a [11], the Ki was determined as 0.4 nM.
As for `COc1ccc(C2CCOCC2)c2oc(NC(=O)c3ccnc(N4CCOCC4)c3)nc12`, in the series listed under Homo sapiens, the Ratio Ki was 351. Moreover, the results for the Ki at Adenosine receptor A2a [12] and on Adenosine receptor A1 [1] were 25 nM and 8780 nM, respectively.
For the molecule `Cn1c(=O)c2c(ncn2C)n(C)c1=O` [CAFFEINE], the values for the inhibition in vivo at 3 mg/kg with Rattus norvegicus [13] and in the series with Rattus norvegicus [14] were 35% and 14%, respectively.
In the case of `CCn1c(=O)c2c(nc(/C=C/c3ccc(OC)c(OC)c3)n2C)n(CC)c1=O` [ISTRADEFYLLINE], the Ki at Adenosine receptor A3 [7] is above 3000 nM.
As for `Nc1nc(-c2ccco2)c2ncn(C(=O)NCc3ccco3)c2n1`, the Ki amounted to 141 nM on Adenosine receptor A2b [6], 1.7 nM at Adenosine receptor A2a [12] and 1930 nM on Adenosine receptor A3 [7].
On to `Cc1cc(C)n(-c2cc(NC(=O)CN3CCN(C)CC3)nc(-c3nccs3)n2)n1`, for which the Ratio Ki in the series listed under Homo sapiens stood at 222.
The term AUC denotes concentration integrated over time. A lower AUC goes with less exposure. On to `Cc1ccc2cc(CCn3ncc4c3nc(N)n3nc(-c5ccco5)nc43)ccc2n1`, for which the Ratio Ki in the series listed under Homo sapiens turned out to be 169. Further, the AUC in [15] turned out to be 1400 ng·h/mL. The inhibition in vivo at 3 mg/kg in the series on Rattus norvegicus [13] turned out to be 86%; in the series on Rattus norvegicus [14], 38%. Moreover, the affinity on Adenosine receptor A1 [1], expressed as Ki, was 406 nM.
The ED50 is the dose that gives a 50% effect, or the effect in half of the subjects. Consider `Nc1nc(-c2ccccc2)c2c(n1)-c1cc(CN3CCCC3)ccc1C2=O`, for which, in the series on Rattus norvegicus [16], the ED50 was determined as 0.5 mg/kg.
For `Cc1cc(Cn2nnc3c(-c4ccco4)nc(N)nc32)ccc1N` [VIPADENANT], the minimal effective dose in the series filed under Rattus norvegicus [17] amounted to 0.1 mg/kg.
